Like-named read-outs stand apart in the source and are kept apart here.
Experiments:
[1] = target: T1, hSERT (Homo sapiens, UniProt P31645); experiment: hSERT binding assay (Assay 1)
T1 construct: expressed in transfected cells; host or cells: HEK-293 derived cell line, stably transfected; membrane preparation
Method in brief: (§1)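 Membranes from HEK-293 cells stably expressing human NET or SERT competed test compound against ^3H-nisoxetine (hNET) or ^3H-citalopram (hSERT). Buffer was 50 mM Tris-HCl pH 7.4, 120 mM NaCl, 5 mM KCl, 0.1% BSA and 400 μM ascorbic acid.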

[2] = target: T2, hNET (Homo sapiens, UniProt P23975); experiment: hNET binding assay (Assay 1); settings: read-out: NET pKi (converted)
T2 construct: expressed in transfected cells; host or cells: HEK-293 derived cell line, stably transfected; membrane preparation
T2 sequence (P23975 whole entry): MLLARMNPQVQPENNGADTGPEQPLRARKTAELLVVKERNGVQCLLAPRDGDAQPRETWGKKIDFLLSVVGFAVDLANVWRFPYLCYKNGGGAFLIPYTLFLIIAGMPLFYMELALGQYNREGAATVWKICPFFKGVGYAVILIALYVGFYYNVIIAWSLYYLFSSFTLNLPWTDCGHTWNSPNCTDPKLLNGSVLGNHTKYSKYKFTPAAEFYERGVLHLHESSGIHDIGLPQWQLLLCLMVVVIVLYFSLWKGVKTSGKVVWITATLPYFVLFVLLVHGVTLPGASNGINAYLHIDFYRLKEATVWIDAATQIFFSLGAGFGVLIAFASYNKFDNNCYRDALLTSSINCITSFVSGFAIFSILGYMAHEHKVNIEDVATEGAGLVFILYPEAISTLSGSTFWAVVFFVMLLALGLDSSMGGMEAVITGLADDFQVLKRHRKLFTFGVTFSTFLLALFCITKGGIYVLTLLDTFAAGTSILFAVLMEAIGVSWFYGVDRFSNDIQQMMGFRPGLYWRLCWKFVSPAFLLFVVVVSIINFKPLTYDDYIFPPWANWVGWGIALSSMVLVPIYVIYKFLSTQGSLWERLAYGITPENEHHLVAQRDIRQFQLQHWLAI
Method in brief: as §1

[3] = ratio of SERT Ki to NET Ki (binding)
[4] = ratio of binding Ki at hSERT to Ki at hNET, rounded off to the nearest tenth
[5] = membranes of HEK-293 cells expressing hNET, 1.0 nM 3H-nisoxetine
[6] = ratio of SERT Ki to NET Ki from binding assays
[7] = ratio of binding Ki at SERT to Ki at NET, the tables list only compounds with a ratio in the range 0.1-100
[8] = hNET binding, the tables list only compounds with NET pKi≧8

T1 sequence (P31645 whole entry): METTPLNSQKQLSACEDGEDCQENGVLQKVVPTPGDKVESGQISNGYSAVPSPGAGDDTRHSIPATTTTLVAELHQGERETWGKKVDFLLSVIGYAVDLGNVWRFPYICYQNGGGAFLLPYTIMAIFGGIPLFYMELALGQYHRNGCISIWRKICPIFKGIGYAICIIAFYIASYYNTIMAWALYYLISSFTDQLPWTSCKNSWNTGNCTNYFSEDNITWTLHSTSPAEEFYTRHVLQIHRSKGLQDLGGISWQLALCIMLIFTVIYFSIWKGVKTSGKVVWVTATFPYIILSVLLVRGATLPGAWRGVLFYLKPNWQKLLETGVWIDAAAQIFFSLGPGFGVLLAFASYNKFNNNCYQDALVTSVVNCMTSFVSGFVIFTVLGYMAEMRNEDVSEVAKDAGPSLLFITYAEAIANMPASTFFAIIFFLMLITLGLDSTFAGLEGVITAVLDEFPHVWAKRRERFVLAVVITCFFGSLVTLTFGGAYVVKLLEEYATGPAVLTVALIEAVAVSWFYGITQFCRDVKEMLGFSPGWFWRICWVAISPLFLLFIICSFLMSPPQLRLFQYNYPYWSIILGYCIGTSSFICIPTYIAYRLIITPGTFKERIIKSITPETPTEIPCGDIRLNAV

Cc1cc(F)cc(C(Oc2cc(Cl)cc(Cl)c2)C2CCNC2)c1 (stereo not drawn) [35-19]
SERT Ki/NET Ki [1, 3]: 0.4 | Ki ([2]; hNET binding): 6.31 nM

CC(=O)c1c(F)cccc1OC(c1ccccc1)C1CCNC1 (stereo not drawn) [Compound 25-30]
SERT Ki/NET Ki [1, 4]: 10 | Ki [2, 5]: 3.16 nM

COc1ccc(F)cc1O[C@H](c1ccccc1)[C@@H]1CCNC1 [29-25]
SERT Ki/NET Ki [1, 6]: 0.3 | Ki ([2]; hNET binding assay): 7.94 nM

Fc1cccc(OC(c2ccccc2)C2CCNC2)c1 (stereo not drawn) [Compound 21-1]
SERT Ki/NET Ki [1, 4]: 1 | Ki [2, 5]: 3.98 nM

COC(=O)c1cc(Cl)ccc1OC(c1ccccc1)C1CCNC1 (stereo not drawn) [27-34]
SERT Ki/NET Ki [1, 6]: 4 | Ki ([2]; hNET binding assay): 2.51 nM

COC(=O)c1cc(F)cc(F)c1O[C@@H](c1ccccc1)[C@H]1CCNC1 [44-28]
SERT Ki/NET Ki [1, 7]: 2.5 | Ki [2, 8]: 1 nM

Fc1cc(F)c(F)c(O[C@H](c2ccccc2)[C@@H]2CCNC2)c1 [38-1]
SERT Ki/NET Ki [1, 3]: 0.2 | Ki ([2]; hNET binding): 5.01 nM

Cc1ccc(F)cc1OC(c1ccccc1)C1CCNC1 (stereo not drawn) [29-15]
SERT Ki/NET Ki [1, 6]: 1.3 | Ki ([2]; hNET binding assay): 3.98 nM

Fc1cccc(Cl)c1O[C@@H](c1ccccc1)[C@H]1CCNC1 [31-4]
SERT Ki/NET Ki [1, 6]: 40 | Ki ([2]; hNET binding assay): 0.126 nM

Fc1cccc(O[C@@H](c2ccccc2)[C@H]2CCNC2)c1Cl [Ex. 9-4, (S)-3-[(R)-(2-chloro-3-fluorophenoxy)phenylmethyl]pyrrolidine]
SERT Ki/NET Ki [1, 4]: 6.3 | Ki [2, 5]: 0.631 nM

CC(C)c1ccccc1OC(c1cccc(Cl)c1)C1CCNC1 (stereo not drawn) [Compound 20-12]
SERT Ki/NET Ki [1, 4]: 7.9 | Ki [2, 5]: 5.01 nM

Fc1cccc(O[C@H](c2ccccc2)[C@@H]2CCNC2)c1F [Compound 25-2]
SERT Ki/NET Ki [1, 4]: 0.2 | Ki [2, 5]: 6.31 nM

NC(=O)c1cccc(C(Oc2c(F)ccc(F)c2Cl)C2CCNC2)c1 (stereo not drawn) [41-36]
SERT Ki/NET Ki [1, 3]: 7.9 | Ki ([2]; hNET binding): 1 nM

COc1ccccc1OC(c1ccc(Cl)cc1)C1CCNC1 (stereo not drawn) [Compound 20-21]
SERT Ki/NET Ki [1, 4]: 4 | Ki [2, 5]: 2 nM

Cc1cccc(Cl)c1O[C@@H](c1ccccc1)[C@H]1CCNC1 [31-12]
SERT Ki/NET Ki [1, 6]: 1.6 | Ki ([2]; hNET binding assay): 1 nM

Fc1cc(F)cc(C(Oc2cc(Cl)cc(Cl)c2)C2CCNC2)c1 (stereo not drawn) [35-14]
SERT Ki/NET Ki [1, 3]: 0.3 | Ki ([2]; hNET binding): 2 nM

Cc1cccc(F)c1O[C@@H](c1ccccc1)[C@H]1CCNC1 [31-7]
SERT Ki/NET Ki [1, 6]: 5 | Ki ([2]; hNET binding assay): 0.2 nM

Cc1ccc(F)c(O[C@H](c2ccccc2)[C@@H]2CCNC2)c1Cl [40-29]
SERT Ki/NET Ki [1, 3]: 0.4 | Ki ([2]; hNET binding): 0.2 nM

Fc1cc(F)c(Cl)c(OC(c2ccccc2)C2CCNC2)c1F (stereo not drawn) [47-6]
SERT Ki/NET Ki [1, 7]: 6.3 | Ki [2, 8]: 0.398 nM

COc1ccccc1OC(c1ccccc1Cl)C1CCNC1 (stereo not drawn) [Compound 20-17]
SERT Ki/NET Ki [1, 4]: 13 | Ki [2, 5]: 1 nM

Fc1ccc(Cl)cc1O[C@@H](c1ccccc1)[C@H]1CCNC1 [29-5]
SERT Ki/NET Ki [1, 6]: 16 | Ki ([2]; hNET binding assay): 0.501 nM

Cc1cccc(F)c1OC(c1ccccc1)C1CCNC1 (stereo not drawn) [31-6]
SERT Ki/NET Ki [1, 6]: 2 | Ki ([2]; hNET binding assay): 1.58 nM

Fc1ccc(F)c(O[C@@H](c2ccccc2)[C@H]2CCNC2)c1 [29-2]
SERT Ki/NET Ki [1, 6]: 32 | Ki ([2]; hNET binding assay): 1.26 nM

COc1ccc(F)c(OC(c2ccccc2)C2CCNC2)c1Cl (stereo not drawn) [40-35]
SERT Ki/NET Ki [1, 3]: 0.3 | Ki ([2]; hNET binding): 0.398 nM

Cc1ccc(F)c(O[C@@H](c2ccccc2)[C@H]2CCNC2)c1Cl [Ex. 13, (S)-3-[(R)-(2-chloro-6-fluoro-3-methylphenoxy)phenylmethyl]pyrrolidine]
SERT Ki/NET Ki [1, 3]: 1.3 | Ki ([2]; hNET binding): 0.251 nM

COc1ccc(F)c(Cl)c1O[C@@H](c1ccccc1)[C@H]1CCNC1 [40-22]
SERT Ki/NET Ki [1, 3]: 13 | Ki ([2]; hNET binding): 0.631 nM

Cc1ccc(F)c(OC(c2cc(F)cc(F)c2)C2CCNC2)c1Cl (stereo not drawn) [41-29]
SERT Ki/NET Ki [1, 3]: 0.5 | Ki ([2]; hNET binding): 0.251 nM

FC(F)(F)Oc1ccccc1OC(c1ccccc1)C1CCNC1 (stereo not drawn) [Compound 19-18]
SERT Ki/NET Ki [1, 4]: 20 | Ki [2, 5]: 1.26 nM

Fc1cc(Cl)cc(OC(c2ccccc2)C2CCNC2)c1 (stereo not drawn) [34-5]
SERT Ki/NET Ki [1, 6]: 0.1 | Ki ([2]; hNET binding assay): 3.16 nM

Cc1ccc(Cl)c(OC(c2cccc(C#N)c2)C2CCNC2)c1Cl (stereo not drawn) [41-14]
SERT Ki/NET Ki [1, 3]: 7.9 | Ki ([2]; hNET binding): 0.631 nM

Fc1cccc(C(Oc2cccc(Cl)c2)C2CCNC2)c1 (stereo not drawn) [Compound 22-3]
SERT Ki/NET Ki [1, 4]: 0.1 | Ki [2, 5]: 7.94 nM

COc1ccc(Cl)cc1OC(c1ccccc1)C1CCNC1 (stereo not drawn) [29-21]
SERT Ki/NET Ki [1, 6]: 1 | Ki ([2]; hNET binding assay): 3.16 nM

COC(=O)c1c(F)c(F)c(F)c(F)c1OC(c1ccccc1)C1CCNC1 (stereo not drawn) [49-8]
SERT Ki/NET Ki [1, 7]: 0.4 | Ki [2, 8]: 3.16 nM

COc1ccc(F)c(OC(c2ccccc2)C2CCNC2)c1F (stereo not drawn) [40-4]
SERT Ki/NET Ki [1, 3]: 6.3 | Ki ([2]; hNET binding): 0.631 nM

COc1ccccc1O[C@@H](c1cc(C)cc(F)c1)[C@@H]1CCNC1 (racemic) [Compound 20-37]
SERT Ki/NET Ki [1, 4]: 13 | Ki [2, 5]: 6.31 nM

COc1ccccc1O[C@H](c1cccc(Cl)c1)[C@@H]1CCNC1 (racemic) [Compound 20-20]
SERT Ki/NET Ki [1, 4]: 13 | Ki [2, 5]: 2.51 nM
